pKd: −log10 of the molar value. Where no end group is shown, it is not given here.
What was measured:
freshly harvested PBMC = conditions: cited from earlier work
[1] = system: PBMC from HLA-matched donors; assay type: cell-based, human
[2] = system: PBMC from responding donors; assay type: cell-based, human
DRA1*0101/DRB1*0302 = DRA1*0101/DRB1*0302 (Homo sapiens, UniProt P01903+P01911, A100K/A102G/A103R/A169T/D57E/F76Y/I96L/K41T/L162R/M171V/P40S/Q125H/Q178H/Q39Y/R42S/S66N/T106N/T262R/V115G/W38E/Y61H); test: biochemical; assay type: binding
DRA1*0101/DRB3*0301 = DRA1*0101/DRB3*0301 (Homo sapiens, UniProt P01903+P79483, A169T/A212P/D57E/G115V/L67V/Q178H/R103Q/R40L/Y55F); test: biochemical; assay type: binding
DRA1*0101/DRB3*0301, sequence (P01903 26-254 limits assumed): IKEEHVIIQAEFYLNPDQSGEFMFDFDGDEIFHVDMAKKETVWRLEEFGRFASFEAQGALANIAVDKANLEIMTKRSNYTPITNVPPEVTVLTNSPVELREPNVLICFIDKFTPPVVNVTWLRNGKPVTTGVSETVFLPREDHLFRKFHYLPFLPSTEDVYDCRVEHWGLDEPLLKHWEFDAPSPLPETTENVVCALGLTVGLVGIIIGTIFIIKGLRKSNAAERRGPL
DRA1*0101/DRB3*0301, sequence (P79483 30-266 R40L/Y55F/D57E/L67V/R103Q/G115V/A169T/Q178H/A212P limits assumed): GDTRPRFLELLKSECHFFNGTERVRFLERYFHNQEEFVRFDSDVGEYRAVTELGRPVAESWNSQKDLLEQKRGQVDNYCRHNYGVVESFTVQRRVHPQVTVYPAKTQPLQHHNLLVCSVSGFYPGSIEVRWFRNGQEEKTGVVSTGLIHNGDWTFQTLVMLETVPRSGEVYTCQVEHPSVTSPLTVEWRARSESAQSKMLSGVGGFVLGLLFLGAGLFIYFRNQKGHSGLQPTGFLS

DRA1*0101/DRB1*0101 = biological target: T1, DRA1*0101/DRB1*0101 (Homo sapiens, UniProt P01903+P01911, A100R/D57E/F55L/F60I/F76Y/I96L/L162R/M171V/P40L/Q125E/R42F/V115G/Y59C); test: biochemical; assay type: binding
T1 construct: made in house

DPA1*0103/DPB1*0401 = biological target: T2, DPA1*0103/DPB1*0401 (Homo sapiens, UniProt P04440+P20036); test: biochemical; assay type: binding
T2 construct: made in house
T2 sequence (P20036 32-222 limits assumed): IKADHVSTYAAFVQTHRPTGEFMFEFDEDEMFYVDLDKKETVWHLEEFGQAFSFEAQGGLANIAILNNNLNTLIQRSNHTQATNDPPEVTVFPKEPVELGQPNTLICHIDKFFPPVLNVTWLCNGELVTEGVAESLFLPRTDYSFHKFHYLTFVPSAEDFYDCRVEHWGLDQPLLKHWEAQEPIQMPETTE
T2 sequence (P04440 30-225 limits assumed): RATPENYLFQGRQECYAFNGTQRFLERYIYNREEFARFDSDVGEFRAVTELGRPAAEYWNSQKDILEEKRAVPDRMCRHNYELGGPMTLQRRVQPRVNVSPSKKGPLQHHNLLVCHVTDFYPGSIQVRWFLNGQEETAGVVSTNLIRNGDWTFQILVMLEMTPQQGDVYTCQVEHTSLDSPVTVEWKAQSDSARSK

DRA1*0101/DRB5*0101 = biological target: T3, DRA1*0101/DRB5*0101 (Homo sapiens, UniProt P01903+Q30154); test: biochemical; assay type: binding
T3 construct: made in house

DRA1*0101/DRB1*0301 = DRA1*0101/DRB1*0301 (Homo sapiens, UniProt P01903+P01911, A100K/A102G/A103R/A169T/F55Y/I96L/K41T/L162R/M171V/P40S/Q125H/Q178H/Q39Y/R42S/S66N/T106N/T262R/W38E/Y61H); test: biochemical; assay type: binding
DRA1*0101/DRB1*0301, sequence (P01903 26-254 limits assumed, other chains not shown): as the sequence (P01903 26-254 limits assumed) above

DRA1*0101/DRB1*0401 = biological target: T4, DRA1*0101/DRB1*0401 (Homo sapiens, UniProt P01903+P01911, A100K/A169T/F76Y/I96L/K127E/L162R/M171V/N62H/P40V/Q125Y/R42H/S133A/S149N/S66Y/V115G/V209L/W38E); test: biochemical; assay type: binding
T4 construct: made in house

HLA-B7 = HLA-B7 (Homo sapiens, UniProt P01889); test: biochemical; assay type: binding
HLA-B7, sequence (P01889 25-299): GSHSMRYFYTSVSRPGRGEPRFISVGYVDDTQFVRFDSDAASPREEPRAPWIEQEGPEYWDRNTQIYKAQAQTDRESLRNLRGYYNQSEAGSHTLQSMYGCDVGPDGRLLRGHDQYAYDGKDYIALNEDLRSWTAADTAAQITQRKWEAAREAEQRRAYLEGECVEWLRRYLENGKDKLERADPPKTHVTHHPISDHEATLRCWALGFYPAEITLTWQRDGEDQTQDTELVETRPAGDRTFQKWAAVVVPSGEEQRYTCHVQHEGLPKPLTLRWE
HLA-B7, sequence (P61769 21-119, further chain): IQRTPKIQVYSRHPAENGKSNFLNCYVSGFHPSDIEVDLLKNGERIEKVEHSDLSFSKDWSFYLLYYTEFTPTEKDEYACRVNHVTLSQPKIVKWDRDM

HLA-A3 = HLA-A3 (Homo sapiens, UniProt P04439); test: biochemical
HLA-A3, sequence (P04439 25-299): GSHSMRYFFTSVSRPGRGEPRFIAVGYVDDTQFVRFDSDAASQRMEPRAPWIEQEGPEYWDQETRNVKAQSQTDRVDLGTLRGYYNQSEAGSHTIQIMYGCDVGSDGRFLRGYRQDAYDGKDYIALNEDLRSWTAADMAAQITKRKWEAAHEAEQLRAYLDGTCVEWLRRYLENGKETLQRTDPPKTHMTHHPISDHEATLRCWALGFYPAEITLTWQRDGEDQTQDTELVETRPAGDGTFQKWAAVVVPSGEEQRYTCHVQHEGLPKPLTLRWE
HLA-A3, sequence (P61769 21-119, further chain): as the sequence (P61769 21-119, further chain) above

| Sequence | antigenicity in ELISPOT of Assarsson et al (freshly harvested PBMC) | +Peptide, IFNγ spot forming cell numbers [1] | SFC/1×10^5 PBMC+Peptide, IVA12 [2] | SFC/1×10^5 PBMC+Peptide, Isotype [2] | SFC/1×10^5 PBMC+Peptide, W6/32 [2] | pKd (DRA1*0101/DRB1*0302) | pKd (DRA1*0101/DRB3*0301) | pKd (DRA1*0101/DRB1*0101) | pKd (DPA1*0103/DPB1*0401) | pKd (DRA1*0101/DRB5*0101) | pKd (DRA1*0101/DRB1*0301) | pKd (DRA1*0101/DRB1*0401) | pKd (HLA-B7) | pKd (HLA-A3) |
| --- | --- | --- | --- | --- | --- | --- | --- | --- | --- | --- | --- | --- | --- | --- |
| DPLVVAASI [PF-146] | failed to show antigenicity | 42±8 per 10^5 PBMC | 2±2 SFC/1×10^5 PBMC | 17±1 SFC/1×10^5 PBMC | 18±3 SFC/1×10^5 PBMC | – | – | – | – | – | – | – | – | – |
| ETIVLLRAF [PF-113] | – | – | – | – | – | < 5.30 | < 5.30 | 5.43 | < 5.30 | 6.11 | < 5.30 | < 5.30 | – | – |
| IAPWYAFAL [PF-154] | – | – | – | – | – | < 5.30 | < 5.30 | < 5.30 | < 5.30 | 5.77 | < 5.30 | < 5.30 | – | – |
| ILWILDRLF [PF-140] | – | 17±4 per 10^5 PBMC | 1±1 SFC/1×10^5 PBMC | 32±3 SFC/1×10^5 PBMC | 43±19 SFC/1×10^5 PBMC | – | – | – | – | – | – | – | – | – |
| IMLKANFSV [PF-103] | – | – | – | – | – | < 5.30 | 7.74 | 5.46 | < 5.30 | < 5.30 | < 5.30 | 5.86 | – | – |
| LMNELGVPF [PF-141] | – | – | – | – | – | < 5.30 | 5.40 | < 5.30 | < 5.30 | < 5.30 | < 5.30 | < 5.30 | – | – |
| LPFHNVHPL [PF-147] | – | – | – | – | – | < 5.30 | < 5.30 | < 5.30 | < 5.30 | 5.43 | < 5.30 | < 5.30 | 8.22 | – |
| LPFQNVHPV [PF-150] | – | – | – | – | – | < 5.30 | < 5.30 | < 5.30 | < 5.30 | 5.92 | < 5.30 | < 5.30 | 6.79 | – |
| LVSLGAISF [PF-148] | – | – | – | – | – | < 5.30 | < 5.30 | 5.36 | < 5.30 | < 5.30 | < 5.30 | < 5.30 | – | – |
| TIHDRIPHR [PF-116] | – | – | – | – | – | – | – | – | – | – | – | – | – | 7.21 |
| VTIGECPKY [PF-110] | – | 247±13 per 10^5 PBMC | 5±3 SFC/1×10^5 PBMC | 163±28 SFC/1×10^5 PBMC | 165±4 SFC/1×10^5 PBMC | – | – | – | – | – | – | – | – | – |
| YILLKKILSSRFNQM [hypothetical protein 239–253, reference compound] | – | – | – | – | – | – | – | – | 7.60 | 7.77 | – | – | – | – |
| YKYVKQNTLKLAT [HA306–318, reference compound] | – | – | – | – | – | 7.28 | 8.52 | 6.97 | < 5.30 | 7.92 | 7.59 | 7.82 | – | – |
| YPRYPGVRC [PF-145] | – | – | – | – | – | – | – | – | – | – | – | – | 7.96 | – |
| YVKQNTLKL [PF-152] | – | – | – | – | – | 5.65 | 6.45 | 5.92 | < 5.30 | 6.39 | < 5.30 | 6.65 | 7.14 | – |

Source: article PMC2866539, “HLA Class I Binding 9mer Peptides from Influenza A Virus Induce CD4^+ T Cell Responses” (PLoS ONE, 2010)
